Results as given in patent US20170000133A1, “BENZOXABOROLE FUNGICIDES” (SYNGENTA PARTICIPATIONS AG, priority 2013, published 2017).

Assays:
[1] = test system: Glomerella lagenarium (Colletotrichum lagenarium); test: Glomerella lagenarium (Colletotrichum lagenarium) / liquid culture (anthracnose); type: cell-based; conditions: Colletotrichum orbiculare, PDB potato dextrose broth, 24° C., 3-4 days after application, read-out: disease control (inhibition of growth measured photometrically)
Description: 11. Glomerella lagenarium (Colletotrichum lagenarium)/Liquid Culture (Anthracnose): Conidia of the fungus from cryogenic storage were directly mixed into nutrient broth (PDB potato dextrose broth). After placing a DMSO solution of test compound into a 96-well microtiter plate at an application rate of 200 ppm, the nutrient broth containing the fungal spores was added. The test plates were incubated at 24° C. and the inhibition of growth was measured photometrically 3-4 days after application.

[2] = test system: Pythium ultimum; test: Pythium ultimum / liquid culture (seedling damping off); type: cell-based; conditions: Globisporangium ultimum; 200 ppm; potato dextrose broth, 24° C., 2-3 days after application; read-out: disease control (inhibition of growth determined photometrically)
[3] = test system: Monographella nivalis (Microdochium nivale); test: Monographella nivalis (Microdochium nivale) / liquid culture (foot rot cereals); type: cell-based; conditions: PDB potato dextrose broth, 24° C., 4-5 days after application, read-out: disease control (inhibition of growth determined photometrically)
[4] = test system: Gaeumannomyces graminis; test: Gaeumannomyces graminis / liquid culture (take-all of cereals); type: cell-based; conditions: PDB potato dextrose broth, 24° C., 4-5 days after application, read-out: disease control (inhibition of growth determined photometrically)
Description: 14. Gaeumannomyces graminis/Liquid Culture (Take-all of Cereals): Mycelial fragments of the fungus from cryogenic storage were directly mixed into nutrient broth (PDB potato dextrose broth). After placing a DMSO solution of test compound into a 96-well microtiter plate at an application rate of 200 ppm, the nutrient broth […], containing the fungal spores is added. The test plates were incubated at 24° C. and the inhibition of growth was determined photometrically 4-5 days after application.

[5] = test system: Mycosphaerella graminicola (Septoria tritici); test: Mycosphaerella graminicola (Septoria tritici) / liquid culture (Septoria blotch); type: cell-based; conditions: Zymoseptoria tritici, PDB potato dextrose broth, 24° C., 4-5 days after application, read-out: disease control (inhibition of growth determined photometrically)
Description: 13. Mycosphaerella graminicola (Septoria tritici)/Liquid Culture (Septoria Blotch): Conidia of the fungus from cryogenic storage were directly mixed into nutrient broth (PDB potato dextrose broth). After placing a DMSO solution of test compound into a 96-well microtiter plate at an application rate of 200 ppm, the nutrient broth containing the fungal spores was added. The test plates were incubated at 24° C. and the inhibition of growth was determined photometrically 4-5 days after application.

[6] = test system: Thanatephorus cucumeris (Rhizoctonia solani); test: Thanatephorus cucumeris (Rhizoctonia solani) / liquid culture (foot rot, damping-off); type: cell-based; conditions: PDB potato dextrose broth, 24° C., 3-4 days after application, read-out: disease control (inhibition of growth determined photometrically)
Description: 17. Thanatephorus cucumeris (Rhizoctonia solani)/Liquid Culture (Foot Rot, Damping-Off): Mycelia fragments of a newly grown liquid culture of the fungus were directly mixed into nutrient broth (PDB potato dextrose broth). After placing a DMSO solution of the test compounds into a 96-well microtiter plate at an application rate of 200 ppm, the nutrient broth containing the fungal material was added. The test plates were incubated at 24° C. and the inhibition of growth was determined photometrically 3-4 days after application.

[7] = test system: Plasmopara viticola; test: whole plant or invertebrate; type: in vivo; conditions: foliar, read-out: disease control
[8] = test system: Mycosphaerella arachidis (Cercospora arachidicola); test: Mycosphaerella arachidis (Cercospora arachidicola) / liquid culture (early leaf spot); type: cell-based; conditions: PDB potato dextrose broth, 24° C., 4-5 days after application, read-out: disease control (inhibition of growth determined photometrically)
Description: 12. Mycosphaerella arachidis (Cercospora arachidicola)/Liquid Culture (Early Leaf Spot): Conidia of the fungus from cryogenic storage were directly mixed into nutrient broth (PDB potato dextrose broth). After placing a DMSO solution of test compound into a 96-well microtiter plate at an application rate of 200 ppm, the nutrient broth containing the fungal spores was added. The test plates were incubated at 24° C. and the inhibition of growth was determined photometrically 4-5 days after application.

Cc1ccccc1NC(=O)c1cc2c(cc1Cl)COB2O [Compound 112]
≥ 80%: inhibition at 200 ppm [1]

CC(=O)c1sc(NC(=O)c2cc3c(cc2Cl)COB3O)nc1C [Compound 158]
≥ 80%: inhibition at 200 ppm [1] | inhibition at 200 ppm [2]

O=C(OC(CF)CF)c1cc2c(cc1Cl)COB2O [Compound 189]
≥ 80%: inhibition at 200 ppm [3] | inhibition at 200 ppm [1] | inhibition at 200 ppm [2] | inhibition at 200 ppm [4]

C=CC(=O)OCC(C)OC(=O)c1cc2c(cc1Cl)COB2O (stereo not drawn) [Compound 191]
≥ 80%: inhibition at 200 ppm [3] | inhibition at 200 ppm [1] | inhibition at 200 ppm [5] | inhibition at 200 ppm [4]

O=C(OCC(F)(F)Cl)c1cc2c(cc1Cl)COB2O [Compound 192]
≥ 80%: inhibition at 200 ppm [6] | inhibition at 200 ppm [3] | inhibition at 200 ppm [1] | inhibition at 200 ppm [5] | inhibition at 200 ppm [2] | inhibition at 200 ppm [4] | pest or weed control at 200 ppm [7]

O=C(OCC1CCSCC1)c1cc2c(cc1Cl)COB2O [Compound 196]
≥ 80%: inhibition at 200 ppm [3] | inhibition at 200 ppm [1] | inhibition at 200 ppm [5] | inhibition at 200 ppm [2] | inhibition at 200 ppm [4] | pest or weed control at 200 ppm [7]

O=C(OCc1ccc(-c2ccccc2)cc1)c1cc2c(cc1Cl)COB2O [Compound 199]
≥ 80%: inhibition at 200 ppm [3] | inhibition at 200 ppm [1] | inhibition at 200 ppm [5] | inhibition at 200 ppm [4]

CC(F)COC(=O)c1cc2c(cc1Cl)COB2O (stereo not drawn) [Compound 209]
≥ 80%: inhibition at 200 ppm [6] | inhibition at 200 ppm [3] | inhibition at 200 ppm [1] | inhibition at 200 ppm [2] | inhibition at 200 ppm [4]

O=C(OCc1ncc(C(F)(F)F)cc1Cl)c1cc2c(cc1Cl)COB2O [Compound 221]
≥ 80%: inhibition at 200 ppm [3] | inhibition at 200 ppm [1] | inhibition at 200 ppm [2] | inhibition at 200 ppm [4]

COC(=O)C(OC(=O)c1cc2c(cc1Cl)COB2O)c1ccccc1 (stereo not drawn) [Compound 223]
≥ 80%: inhibition at 200 ppm [3] | inhibition at 200 ppm [1] | inhibition at 200 ppm [2] | pest or weed control at 200 ppm [7]

COCCOC(=O)c1cc2c(cc1Cl)COB2O [Compound 224]
≥ 80%: inhibition at 200 ppm [3] | inhibition at 200 ppm [1] | inhibition at 200 ppm [2] | inhibition at 200 ppm [4]

O=C(OCCCCc1ccc2ccccc2c1)c1cc2c(cc1Cl)COB2O [Compound 227]
≥ 80%: inhibition at 200 ppm [6] | inhibition at 200 ppm [3] | inhibition at 200 ppm [1] | inhibition at 200 ppm [5]

O=C(OC1CCOCC1)c1cc2c(cc1Cl)COB2O [Compound 237]
≥ 80%: inhibition at 200 ppm [3] | inhibition at 200 ppm [1] | inhibition at 200 ppm [2]

O=C(OCCC(F)(F)F)c1cc2c(cc1Cl)COB2O [Compound 238]
≥ 80%: inhibition at 200 ppm [6] | inhibition at 200 ppm [3] | inhibition at 200 ppm [1] | inhibition at 200 ppm [5] | inhibition at 200 ppm [2] | inhibition at 200 ppm [4] | pest or weed control at 200 ppm [7]

Cc1ccccc1NC(=O)c1ccc2c(c1)B(O)OC2 [Compound 280]
≥ 80%: inhibition at 200 ppm [1] | inhibition at 200 ppm [2]

O=C(OCc1ccc(C(F)(F)F)cc1Cl)c1ccc2c(c1)B(O)OC2 [Compound 326]
≥ 80%: inhibition at 200 ppm [3] | inhibition at 200 ppm [1] | inhibition at 200 ppm [4]

C#CC(CC)OC(=O)c1ccc2c(c1)B(O)OC2 (stereo not drawn) [Compound 327]
≥ 80%: inhibition at 200 ppm [6] | inhibition at 200 ppm [1] | inhibition at 200 ppm [2] | inhibition at 200 ppm [4] | pest or weed control at 200 ppm [7]

C[Si](C)(C)/C=C/COC(=O)c1ccc2c(c1)B(O)OC2 [Compound 342]
≥ 80%: inhibition at 200 ppm [6] | inhibition at 200 ppm [3] | inhibition at 200 ppm [5] | inhibition at 200 ppm [2] | inhibition at 200 ppm [4] | pest or weed control at 200 ppm [7] | inhibition at 200 ppm [8]

O=C(OCCC(F)(F)F)c1ccc2c(c1)B(O)OC2 [Compound 369]
≥ 80%: inhibition at 200 ppm [6] | inhibition at 200 ppm [3] | inhibition at 200 ppm [1] | inhibition at 200 ppm [2] | inhibition at 200 ppm [4]

O=C(OCc1ccc(C(F)(F)F)cc1Cl)c1cc2c(cc1F)COB2O [Compound 386]
≥ 80%: inhibition at 200 ppm [6] | inhibition at 200 ppm [3] | inhibition at 200 ppm [1] | inhibition at 200 ppm [2] | inhibition at 200 ppm [4] | inhibition at 200 ppm [8]

C#CC(CC)OC(=O)c1cc2c(cc1F)COB2O (stereo not drawn) [Compound 387]
≥ 80%: inhibition at 200 ppm [6] | inhibition at 200 ppm [3] | inhibition at 200 ppm [1] | inhibition at 200 ppm [5] | inhibition at 200 ppm [2] | inhibition at 200 ppm [4]

O=C(OCCCF)c1cc2c(cc1F)COB2O [Compound 390]
≥ 80%: inhibition at 200 ppm [6] | inhibition at 200 ppm [3] | inhibition at 200 ppm [1] | inhibition at 200 ppm [2] | inhibition at 200 ppm [4] | pest or weed control at 200 ppm [7]

Cn1cc(CCCOC(=O)c2cc3c(cc2F)COB3O)cn1 [Compound 407]
≥ 80%: inhibition at 200 ppm [6] | inhibition at 200 ppm [1] | inhibition at 200 ppm [2] | inhibition at 200 ppm [8]

O=C(OCc1ncc(C(F)(F)F)cc1Cl)c1cc2c(cc1F)COB2O [Compound 409]
≥ 80%: inhibition at 200 ppm [6] | inhibition at 200 ppm [3] | inhibition at 200 ppm [1] | inhibition at 200 ppm [2] | inhibition at 200 ppm [4] | pest or weed control at 200 ppm [7]

COC(=O)C(OC(=O)c1cc2c(cc1F)COB2O)c1ccccc1 (stereo not drawn) [Compound 411]
≥ 80%: inhibition at 200 ppm [3] | inhibition at 200 ppm [1] | inhibition at 200 ppm [5] | inhibition at 200 ppm [2] | inhibition at 200 ppm [4] | pest or weed control at 200 ppm [7]

O=C(OCCF)c1cc2c(cc1F)COB2O [Compound 423]
≥ 80%: inhibition at 200 ppm [6] | inhibition at 200 ppm [3] | inhibition at 200 ppm [5] | inhibition at 200 ppm [2] | inhibition at 200 ppm [4] | pest or weed control at 200 ppm [7] | inhibition at 200 ppm [8]

O=C(OCC(F)F)c1cc2c(cc1F)COB2O [Compound 427]
≥ 80%: inhibition at 200 ppm [6] | inhibition at 200 ppm [3] | inhibition at 200 ppm [1] | inhibition at 200 ppm [2]
